Experimental data reported in publication PMC7667655, “Targeted Covalent Inhibition of Plasmodium FK506 Binding Protein 35” (ACS Medicinal Chemistry Letters, 2020).
Values after ≈ are worked out from the molar mass of the structure shown.

Experiments:
[1] = molecular target: T1, FBD35 (PfFKBP35 binding domain) (Plasmodium falciparum, UniProt Q8I4V8); assay: Fluorescence polarization competition, FBD35
T1 construct: FKBP35 Q5 -A128; 6His-SUMO (N, cleaved yes); made in house; host or cells: E. coli BL21 DE3
T1 sequence (Q8I4V8 5-128): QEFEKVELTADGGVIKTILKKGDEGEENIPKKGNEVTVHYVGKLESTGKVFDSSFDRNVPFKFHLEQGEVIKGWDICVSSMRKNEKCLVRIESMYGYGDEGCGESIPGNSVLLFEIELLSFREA

[2] = molecular target: T2, nLuc-tagged full length PfFKBP35 (Plasmodium falciparum, UniProt Q8I4V8); assay: NanoBRET cellular target engagement, nLuc-FKBP35; assay type: cell-based
T2 construct: nanoluciferase-tagged (nLuc) full length PfFKBP35 or nLuc-tagged FKBP12; expressed in transfected cells
T2 sequence (Q8I4V8 whole entry): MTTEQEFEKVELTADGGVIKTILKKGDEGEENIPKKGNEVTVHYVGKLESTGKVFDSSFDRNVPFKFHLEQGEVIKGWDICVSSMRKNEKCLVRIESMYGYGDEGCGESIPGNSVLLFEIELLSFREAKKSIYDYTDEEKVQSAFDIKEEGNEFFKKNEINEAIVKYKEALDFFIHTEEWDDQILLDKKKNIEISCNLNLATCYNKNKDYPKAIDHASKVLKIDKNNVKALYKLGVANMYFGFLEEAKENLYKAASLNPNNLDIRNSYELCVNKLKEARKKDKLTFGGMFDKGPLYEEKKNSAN

[3] = test system: NF54 P. falciparum parasites; assay: P. falciparum strain NF54 growth-inhibition assay; assay type: cell-based; conditions: Plasmodium falciparum; luciferase reporter NF54 line, 72 h
Protocol: Figure 6 P. falciparum strain NF54 growth-inhibition assay. […] Proliferation was measured by luminescence after a complete life-cycle and normalized to DMSO (100%) and chloroquine (100 nM, 0%). (B) Structural differences between synthetic ligands and compound IC50s (μM).
Substrate and Extracellular NanoLuc® Inhibitor (Promega, cat. N2160) were diluted at 1:166 and 1:500, respectively, in Opti -MEM I Reduced Serum Media. 25 µL of this solution was added to each well and plate was read immediately using an EnVision Multimode Plate Reader (PerkinElmer). The BRET ratio was calculated using the following formula:
BRET ratio = acceptorsample – acceptorno tracer control donorsample donorno tracer control
NanoBRET Target Engagement Assay (384-well)
HEK293T cells stably expressing either nLuc-FKBP12 or nLuc-FKBP35 were plated at 0.2×10^6 cells/mL in white, clear -bottom 384-well plates (Sigma Aldrich) in Opti -MEM I Reduced Serum Media (ThermoFisher Scientific) using a Mutidrop Combi Reagent Dispenser (ThermoFisher Scientific). Cells were incubated overnight at 37 °C, 5% CO 2. Using a Tecan D300e, the Rap-Gly-BDP tracer was added to cells to 1 µM. Plates were shaken at 700 RPM on an orbital plate shaker and incubated at 37 °C, 5% CO 2 for 10 minutes. Test compounds were added at the indicated concentrations using a Tecan D300e. Plates were shaken at 700 RPM on an orbital plate shaker and incubated at 37 °C, 5% CO 2 for 2 hours. NanoBRET Nano -Glo Substrate and Extracellular NanoLuc® Inhibitor (Promega, cat. N2160) were diluted at 1:166 and 1:500, respectively, in Opti-MEM I Reduced Serum Media. 10 µL of this solution was added to each well and plate was read immediately using an EnVision Multimode Plate Reader (PerkinElmer). The BRET ratio was calculated using the above formula.
Parasite Culture and Inhibition
NF54 P. falciparum parasites constitutively expressing Renilla luciferase (RLuc) and Blasticidin-S deaminase under the PfHsp86 5’ and PfHRP2 3‘ regulatory sequences integrated in the cg6 chromosomal locus 4 were maintained continuous ly in media consisting of human erythrocytes at 2% haematocrit (O+) resuspended in RPMI 1640 (Gibco® 31800022) supplemented with 5% Albumax (Gibco® 11021045; complete medium) and 2.5 µg/mL of Blasticidin (RPI Corp B12150-0.1) in a gas mixture consisting of 5% CO2, 1% O2, and 94% N2 at 37 °C (Trager and Jensen 2005).
Parasitemia was determined every 48 h through microscopic examination of thin blood smears fixed in methanol, stained with 10% Giemsa solution, and sub-cultured to 0.5-1% parasitaemia.
Compound susceptibility assays
In 96-well round-bottom plates, sorbitol -synchronized cultures of ring-stage NF54 P. falciparum parasites were established in triplicate and treated with varying concentrations of the inhibitors (25-0.0038 μM) serially diluted in complete medium. Parasite proliferation rates were analyzed after 72 h using the Renilla-Glo Luciferase Assay, and luminescence was measured using the GloMax® Discover Microplate Reader. EC 50 values were obtained from corrected dose-response curves using GraphPad Prism (version 5; GraphPad Software). Data represent the mean % luminescence relative to 5% DMSO-treated (vehicle, 100% growth) and 100 nM chloroquine-treated (no growth) controls.
In black, clear-bottom 96-well plates (No. 3904 Corning Life Sciences), HEK293T cells were plated at 2x10^5 cells/mL in DMEM high glucose, pyruvate media (ThermoFisher Scientific, cat. 11995073) supplemented with 10% FBS and 1% pen -strep (100 μL final volume). Cells were incubated overnight at 37°C, 5% CO2. Using a Tecan D300e digital dispenser, cells were dosed in triplicate […]
concentration, 100 mM stock in DMSO) and Carfilzomib (10 µM to 4.6 nM final concentration, 10 mM stock in DMSO) normalizing DMSO to 0.25%. Cells were then incubated at 37 °C, 5% CO2 for 72 hours. Following incubation, cells were treated with 70 µL CellTiter-Glo® Luminescent Cell […]

FKBP12 = molecular target: T3, FKBP12 (Homo sapiens, UniProt P62942); assay: Differential scanning calorimetry, FKBP12; assay type: binding; conditions: compound 40 µM
T3 construct: 6His-SUMO (N, cleaved yes); made in house; host or cells: E. coli (identical protocol to FBD35, BL21 DE3)
T3 sequence (P62942 whole entry): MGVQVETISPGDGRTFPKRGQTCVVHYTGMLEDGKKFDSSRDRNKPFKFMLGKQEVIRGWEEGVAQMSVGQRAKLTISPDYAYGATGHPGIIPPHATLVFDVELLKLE

PBS solubility = conditions: pH 7.4

Row | SMILES | IC50 [1] [µM] | IC50 [2] [µM] | IC50 [3] [µM] | ΔTm at 40 µM (FKBP12) [°C] | solubility (PBS solubility) [µM] | fold weaker binding by FP ([1]; acrylamide moved to ortho position, compared with 1a) [fold]
1 | CCC(=O)Nc1cccc([C@@H](CCc2ccc(OC)c(OC)c2)OC(=O)[C@@H]2CCCCN2C(=O)C(=O)C(C)(C)CC)c1 [1b] | 0.076 | 0.876 | 1.9 | 6.8 |  | 
2 | C=CC(=O)Nc1cccc([C@@H](CCc2ccc(OC)c(OC)c2)OC(=O)[C@@H]2CCCCN2C(=O)C(=O)C(C)(C)CC)c1 [1a] | 0.206 | 1.23 | 1.4 | 5.6 | 0.31 (≈ 0.179 µg/mL) | 
3 | C=CC(=O)Nc1ccccc1[C@@H](CCc1ccc(OC)c(OC)c1)OC(=O)[C@@H]1CCCCN1C(=O)C(=O)C(C)(C)CC [1c] | 2.85 |  | 1.9 | 3.2 | 3.5 (≈ 2.03 µg/mL) | > 10
4 | C=CC(=O)OCC(C)(C)C(=O)C(=O)N1CCCC[C@H]1C(=O)O[C@H](CCc1ccc(OC)c(OC)c1)c1ccccc1 [2c] | 0.559 | 0.854 | 13 | 5.2 | < 0.1 | 
